Source: ChEMBL document CHEMBL1201862, “PubChem BioAssay data set” (2004)
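Cultured in 96-well plates, cells were exposed to test compound for 48 hours across five concentrations. GI50 is the concentration that inhibits growth by half.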 Active and inactive are the calls of the source. Cut-off read from the data, not from the text of the source: active = GI50 up to about 1.1 µM and inactive = higher.

What was measured:
Test in all cases: NCI anticancer screen, dose series, 48 h
SK-MEL-2 = tested on: SK-MEL-2
HOP-62 = tested on: HOP-62
HCT-15 = tested on: HCT-15
RPMI-8226 = tested on: RPMI-8226
SF-539 = tested on: SF-539
LOX IMVI = tested on: LOX IMVI
A549 = tested on: A549
786-0 = tested on: 786-0
SNB-19 = tested on: SNB-19
OVCAR-3 = tested on: OVCAR-3
HCC 2998 = tested on: HCC 2998
OVCAR-4 = tested on: OVCAR-4
IGROV-1 = tested on: IGROV-1
NCI-H460 = tested on: NCI-H460
SK-OV-3 = tested on: SK-OV-3
OVCAR-5 = tested on: OVCAR-5

Row | Structure (SMILES) | GI50 (SK-MEL-2) | GI50 (HOP-62) | GI50 (HCT-15) [µM] | GI50 (RPMI-8226) | GI50 (SF-539) | GI50 (LOX IMVI) | GI50 (A549) | GI50 (786-0) | GI50 (SNB-19) | GI50 (OVCAR-3) | GI50 (HCC 2998) | GI50 (OVCAR-4) | GI50 (IGROV-1) | GI50 (NCI-H460) | GI50 (SK-OV-3) | GI50 (OVCAR-5)
1 | CCOC(=O)C(C)(C)Oc1ccc2c(-c3ccccc3)cc(=O)oc2c1 | 22.6 µM (inactive) | 23.1 µM (inactive) | 31.8 | 18.1 µM (inactive) | 31.8 µM (inactive) | 20.2 µM (inactive) | 38.9 µM (inactive) | 33.7 µM (inactive) | 42.1 µM (inactive) | 33.9 µM (inactive) | 98.4 µM (inactive) | 35.4 µM (inactive) | 25.1 µM (inactive) | > 100 µM (inactive) | – | –
2 | CC(=O)/C(=N\O)C(=O)NCc1ccccc1 | > 100 µM (inactive) | > 100 µM (inactive) | 35.9 | > 100 µM (inactive) | > 100 µM (inactive) | 20.2 µM (inactive) | > 100 µM (inactive) | > 100 µM (inactive) | > 100 µM (inactive) | > 100 µM (inactive) | > 100 µM (inactive) | – | > 100 µM (inactive) | 35.2 µM (inactive) | > 100 µM (inactive) | > 100 µM (inactive)
3 | O=[N+]([O-])c1ccc(-c2ccc(C3=Nn4c(CNc5ccccc5Cl)nnc4SC3)o2)cc1 | > 100 µM (inactive) | > 100 µM (inactive) | 12.9 | > 100 µM (inactive) | > 100 µM (inactive) | 42.7 µM (inactive) | > 100 µM (inactive) | > 100 µM (inactive) | > 100 µM (inactive) | > 100 µM (inactive) | > 100 µM (inactive) | – | > 100 µM (inactive) | > 100 µM (inactive) | > 100 µM (inactive) | > 100 µM (inactive)
4 | CC(=O)N1CCC2(C=Nc3ccccc32)CC1 | > 100 µM (inactive) | > 100 µM (inactive) | > 100 | > 100 µM (inactive) | > 100 µM (inactive) | > 100 µM (inactive) | > 100 µM (inactive) | > 100 µM (inactive) | – | > 100 µM (inactive) | > 100 µM (inactive) | > 100 µM (inactive) | > 100 µM (inactive) | > 100 µM (inactive) | > 100 µM (inactive) | > 100 µM (inactive)
5 | NNC(=O)C(=O)N/N=C1/CCCC1C(=O)CCC(=O)Nc1ccc(Cl)cc1 (configuration not stated) | 24.4 µM (inactive) | > 100 µM (inactive) | 12.2 | > 100 µM (inactive) | > 100 µM (inactive) | – | > 100 µM (inactive) | > 100 µM (inactive) | > 100 µM (inactive) | > 100 µM (inactive) | > 100 µM (inactive) | > 100 µM (inactive) | > 100 µM (inactive) | > 100 µM (inactive) | > 100 µM (inactive) | > 100 µM (inactive)
6 | CCCCCCCCCC(=O)N[C@H]1CCc2cc(OC)c(OC)c(OC)c2-c2ccc(SC)c(=O)cc21 | – | 0.0478 µM (active) | 0.0313 | 0.0422 µM (active) | 0.0224 µM (active) | 0.043 µM (active) | 0.0376 µM (active) | 0.0393 µM (active) | 0.0329 µM (active) | 0.0226 µM (active) | 0.0247 µM (active) | 0.408 µM (active) | 0.0387 µM (active) | 0.0347 µM (active) | 0.0238 µM (active) | 29.7 µM (inactive)
7 | COC(=O)C1Cc2c([nH]c3ccccc23)[C@H](CC(C)C)N1 (some centres not stated) | > 100 µM (inactive) | > 100 µM (inactive) | – | > 100 µM (inactive) | > 100 µM (inactive) | > 100 µM (inactive) | > 100 µM (inactive) | > 100 µM (inactive) | > 100 µM (inactive) | > 100 µM (inactive) | > 100 µM (inactive) | – | > 100 µM (inactive) | – | > 100 µM (inactive) | > 100 µM (inactive)
